The results in this text go back to US20230302154A1, “NANODRUGS FOR TARGETED DRUG DELIVERY AND USE THEREOF” (priority 2020, published 2023).

For data set [1] the following is noted: mouse, in vivo, iv, 20 mg/kg. As to the method: PK data analysis was performed using the plasma concentrations of TFV in the mice (FIG. 17). Plasma samples were collected for up to 48 hrs and 72 hours.
An Envigo Teklad Certified Global 18% protein rodent diet, #2018C, and water were provided to the mice ad libitum. Mice were administered a single dose intravenous (iv) dose administration. The average weight of Phase A and Phase B mice were 17.3-18.6 g and 17.2-23.4 g, respectively. All procedures were per the current Association for Assessment and Accreditation of Laboratory Animal Care (AAALAC) recommendations. In vivo studies were carried out in collaboration with NIH-DAIDS Preclinical Contract Services.
During the PK study, 24 males and 24 females used for this phase were divided into two groups (Table 5). […]
TFV was detected with the mass spectrometer in positive MRM (multiple reaction monitoring) mode by following the precursor to fragment ion transitions 288.1 to 176.2 for TFV. A Phenomenex Synergi Polar-RP column (4 microns, 100×2 mm) was used for chromatography with the following conditions: Buffer A: 2% acetic acid in water, Buffer B: 0.1% acetic acid in acetonitrile, 0-2.0 min 2% B, 2.0-2.01 min gradient to 98% B, 2.01-3.5 min gradient to 98% B, and then 3.51-5 min gradient to 2% B. The concentration of drug in each timepoint sample was quantified using Analyst 1.7 software (AB Sciex).

Data set [2] deals with SH-SY5Y cells. Kind of data set: ROS production (DCF-DA) in SH-SY5Y cells. It is filed as cell-based, human. The following applies: 0.01-0.1 mg/mL TFV. As to the method:
(§1) As a first approach to predict the inflammatory response on neuronal cells, the ROS production of HMC-3 and SH-SY5Y cells was evaluated. HMC-3 (FIG. 12A) and SH-SY5Y cells (FIG. 12B) were treated with the different drug-to-lipid ratios of 1:20 and 1:4 at varying TFV drug concentrations (0.01-0.1 mg/mL). A negative control antioxidant (catalase) and positive control (H2O2) were used on non-treated cells. A simultaneous setup was also performed for empty NDs at varying lipid concentrations.
(§2) Reactive oxygen species of ND: Reactive oxygen species (ROS) productions in HMC-3 and SH-SY5Y cells following nanodisc treatment were detected using dichlorofluorescein diacetate assay (DCF-DA; Molecular Probes, Eugene, OR). Cells were cultured in 96-well black bottom plates at 100,000 cells per well and incubated at 37° C. in a humidified, 5% CO2 atmosphere for 24 hours to allow for 70% confluence. The following day, cell media was taken out from each well and replenished with 100 μl of PBS+1% FBS. […] A study of FD-TFV was also measured in similar conditions simultaneously. […] Following 2 hours, the first reading of cell ROS production was read in a BioTek Synergy HTH.T. multi-mode microplate reader (BioTek, Winooski, VT, USA) and then taken every hour for the following 18 hours (excitation 485 nm and emission 528 nm; BioTek). […]

A short description of data set [3]: In vitro sustained drug release assay of liposomal structure (equilibrium dialysis in PBS, NanoDrop). It is filed as physicochemical. As to the method: In order to study the liposome formulation's extended drug release kinetics, a drug release study was done in PBS using an equilibrium dialysis system. […] Liposome 1 has a lipid charge density of 5%. The released TFV from the dialysis bag into the outside environment was sampled at different time points up to 14 days and was measured by a NanoDrop Microvolume Spectrophotometer. Simultaneously, a separate setup with the same concentration and volume of FD-TFV was used as a control. Results were expressed as the cumulative total of TFV released into the system compared to the initial concentration (FIG. 18). […] This downward trend may be caused by byproducts from the FD-TFV in the external environment.

Data set [4] has as its system SH-SY5Y cells. Description: Cell viability (MTS) assay on SH-SY5Y cells. It is filed as cell-based, human. To be noted: 72 hours, 0.01-0.1 mg/mL. As to the method: (§3) To characterize the nanodisc formulation in the biological system in in vitro conditions, it was necessary to screen the formulation for cytotoxicity and ensure that it would not induce significant cytotoxicity to microglial (HMC-3) and neuronal (SH-SY5Y) cells. […] A cell viability (MTS) study was performed for both 1:20 and 1:4 NDs as per the manufacturer's instruction (G3582, Promega, Madison, WI, USA). Nanodiscs were introduced to these cells separately at varying TFV drug concentrations of 0.01-0.1 mg/mL and incubated for 72 hours.
(§4) Microglia and Neuroblastoma Cell Culture: Human embryonic microglial clone 3 cells (HMC-3) and human neuroblastoma cells (SH-SY5Y) were purchased from the American Type Culture Collection (ATCC) Manassas, VA, USA). The transformed cell lines retain the properties of primary cells. They represent homogeneous cell populations that can be grown indefinitely and might represent a convenient system for their functions' biochemical analysis. Cells were cultured in Eagle's Minimum Essential Medium (EMEM) (ATCC®, Manassas, VA, USA) supplemented with a fetal bovine serum to a final concentration of 10% at 37° C. in a humidified, 5% CO2 atmosphere as recommended by the supplier.
(§5) Cells were cultured in 96-well black bottom plates at 50,000 cells per well and incubated at 37° C. in a humidified, 5% CO2 atmosphere for 24 hours to allow for 70% confluence. […]

Data set [5] deals with HMC-3 cells. Kind of data set: Cell viability (MTS) assay on HMC-3 cells. The data set is classed as cell-based, human. To be noted: HMC-3, 72 hours, 0.01-0.1 mg/mL. How it is done: as §3, §4, §5
Data set [6] concerns HMC-3 cells. Kind of data set: ROS production (DCF-DA) in HMC-3 cells. The data set is classed as cell-based, human. The following applies: 0.01-0.1 mg/mL TFV. As to the method:
as §1, §2

Data set [7] can be described thus: In vitro sustained drug release assay of ND (equilibrium dialysis in PBS, LC-MS/MS). The data set is classed as physicochemical. How it is done: In vitro sustained drug release assay: The nanodisc formulation's extended drug release profile was determined in phosphate buffer saline (PBS) using an equilibrium dialysis system. The released TFV from the dialysis bag into the outside environment was sampled at different time points up to 14 days and was measured by LC-MS/MS. The dialysis bag used in these experiments was selected for its pore size of 6-8 kDa MWCO. […] Simultaneously, a separate set up with the same concentration and volume of FD-TFV was used as a control. Results were expressed as the percentage of total TFV released into the system compared to the initial concentration. It was observed that 63% of FD-TFV was release within 4 hours. […] (FIG. 14).
In vitro sustained drug release assay of ND: The drug release kinetics of the nanodisc-based drug delivery was determined in PBS using equilibrium dialysis. […] TFV was monitored by LC-MS/MS using an AB Sciex (Framingham, MA) 6500+QTRAP® mass spectrometer coupled to a Shimadzu (Columbia, MD) NexeraX2 LC. […] LC-MS/MS then evaluated the supernatant. […] The limit of quantitation (LOQ) was defined as the lowest concentration at which back-calculation yielded a concentration within 20% of theoretical and above the LOD.
For orientation: In equilibrium dialysis only unbound substance equilibrates across the membrane.

For data set [8], the system named is HMC-3 cells. Description: In vitro cellular uptake study in microglial cells. It is filed as in vitro ADME, human. To be noted: HMC-3, 0.0625 mg/mL, monitored over 24 hours. As to the method: Cell uptake and characterization of extended-release from nanodisc: To evaluate the intracellular uptake of TFV in microglial cells an in vitro cellular uptake study was performed. The cellular uptake of the two formulations (1:20 ND and 1:4 ND) and FD-TFV as a control were evaluated simultaneously and the uptake and release of TFV was monitored over 24 hours. […] This small window of cellular uptake may indicate that there is a certain capacity that microglia cells can uptake TFV. […] However, the short windows of drug uptake by the microglial cells could indicate that the size and surface charge of the ND could be a contributing factor.
Cell uptake and characterization of extended-release from ND: Microglial uptake, retention, and release of 1:20 ND, 1:4 ND, and FD-TFV were determined. HMC-3 cells were cultured in 24-well at 50,000 cells per well and incubated at 37° C. in a humidified, 5% CO2 atmosphere for 24 hours to allow for 70% confluence. After 24 hours of cell growth, samples were assigned into different treatment groups of 1:20 ND, 1:4 ND, and FD-TFV and treated at 0.0625 mg/mL concentration. Following drug treatment, samples were incubated at 37° C., and cell uptake was determined every hour over 8 hours and at a 24-hour timepoint. For each sample, media was collected into microcentrifuge tubes and stored at −20° C. for later analysis. […]

SMILES strings stand for the structures.

As for `C[C@H](Cn1cnc2c(N)ncnc21)OCP(=O)(O)O` [FD-TFV, Tenofovir], the “AUCinf values (comparison with ND formulation)” value in data set [1] is “higher”. In data set [1], the “plasma exposure higher than for ND (mean C0, AUClast and AUCinf)” value is listed as 2 fold. Moreover, the “ROS production compared to the control” value in the data set on SH-SY5Y cells [2] and in the data set with HMC-3 cells [6] was “did not induce a significant increase” each time. The “drug release of TFV within 4 hours” value in data set [3] (NanoDrop spectrophotometer) was determined as 100%. In data set [3] (up to 14 days), the “drug release (comparison with liposomes)” value was “significantly faster drug release than the liposomes”. Also, the “cytotoxicity compared to the control” value in the data set on SH-SY5Y cells [4] and in the data set on HMC-3 cells [5] was “not considered to be significantly toxic” each time. Moreover, in data set [7] (PBS dialysis, up to 14 days), the “TFV release profile (comparison)” value is listed as “significantly faster TFV release”. The “drug release within 4 hours” value in data set [7] (PBS, dialysis 6-8 kDa MWCO, 37° C., LC-MS/MS) was found to be 63%. Besides, the “time of maximum uptake” value with HMC-3 cells [8] came out at 2 h.
